One assay deals with IRAK4 (Homo sapiens (Human), UniProt Q9NWZ3). The assay is described as follows: IRAK4 Inhibition Assay. In kind it is biochemical. Particulars: ATP 500 μM; IRAK4 0.6 nM. The gist of the method:
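Mobility-shift readout: phosphorylated and unphosphorylated fluorescent peptide (1.5 μM) resolved by electrophoresis after a 60 min room-temperature reaction stopped with EDTA. Reaction holds 0.6 nM IRAK4, 500 μM ATP and 1.6% DMSO in HEPES pH 7.2/MgCl2/Brij 35/DTT buffer; percent inhibition set against vehicle and no-enzyme controls.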

The subject of assay [1] is Human whole blood stimulated with a TLR2 agonist (lipoteichoic acid), IL-6 levels. The assay is described as follows: IRAK4 Whole Blood Assay. In kind it is cell-based. As to conditions: lipoteichoic acid 10 μg/mL. On the procedure: Human whole blood containing the anti-coagulant ACD-A was plated in 384-well plate (25 μL/well) and incubated with compounds for 60 minutes at 37° C. in a 5% CO2 incubator. The blood was stimulated with a TLR2 agonist, 10 μg/mL final concentration of lipoteichoic acid (Invivogen, San Diego, Calif.) in 25 μL RPMI (Gibco) for 5 hours in a 5% CO2 incubator. At the end of the incubation, plates were centrifuged at 2300 rpm for 5 minutes. Supernatants were harvested and analyzed for IL-6 levels by Flow Cytometry beads assay (BD Biosciences, San Jose, Calif.).

This is an account of results in patent publication US10294229B2, “Heteroaryl substituted aminopyridine compounds” (BRISTOL-MYERS SQUIBB COMPANY, priority 2015, dated 2019).

Structures are written as SMILES.

IRAK4, sequence (Q9NWZ3 whole entry, species assumed): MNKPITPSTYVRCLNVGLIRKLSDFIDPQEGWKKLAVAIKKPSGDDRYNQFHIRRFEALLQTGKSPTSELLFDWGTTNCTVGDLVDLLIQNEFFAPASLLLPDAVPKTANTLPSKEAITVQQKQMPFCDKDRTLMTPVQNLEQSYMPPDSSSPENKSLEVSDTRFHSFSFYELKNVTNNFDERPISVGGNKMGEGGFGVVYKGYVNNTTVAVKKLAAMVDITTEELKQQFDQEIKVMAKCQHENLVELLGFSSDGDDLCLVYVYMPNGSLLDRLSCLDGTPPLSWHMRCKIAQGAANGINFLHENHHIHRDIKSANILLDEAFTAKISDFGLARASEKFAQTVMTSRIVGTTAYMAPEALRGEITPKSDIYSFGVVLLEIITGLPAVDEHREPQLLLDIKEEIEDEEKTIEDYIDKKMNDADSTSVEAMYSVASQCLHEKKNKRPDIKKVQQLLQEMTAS

With `CCc1cn(-c2cnc(-n3ncc4cc(C#N)cnc43)cc2NC(C)C)nn1` [Example 325, 1-(5-(4-ethyl-1H-1,2,3-triazol-1-yl)-4-(isopropylamino)pyridin-2-yl)-1H-pyrazolo[3,4-b]pyridine-5-carbonitrile], the IC50 (in general, the concentration at which inhibition is half-maximal) on IRAK4 was found to be 16 nM. The EC50 (usually the concentration giving half of the maximal effect) in assay [1] (Homo sapiens) was 990 nM.
For `CC(C)Nc1cc(-n2ncc3cc(C#N)cnc32)ncc1-n1cc(CCC#N)nn1` [Example 321, 1-(5-(4-(2-cyanoethyl)-1H-1,2,3-triazol-1-yl)-4-(isopropylamino)pyridin-2-yl)-1H-pyrazolo[3,4-b]pyridine-5-carbonitrile] the same measures were 18 nM and 570 nM.
As for `COC(=O)NCCc1cn(-c2cnc(-n3ncc4cc(C#N)cnc43)cc2NC(C)C)nn1` [Example 352, methyl (2-(1-(6-(5-cyano-1H-pyrazolo[3,4-b]pyridin-1-yl)-4-(isopropylamino)pyridin-3-yl)-1H-1,2,3-triazol-4-yl)ethyl)carbamate], the IC50 at IRAK4 is 20 nM. In addition, the EC50 in assay [1] (Homo sapiens) is 460 nM.
Regarding `CC(C)Nc1cc(-n2ncc3cc(C#N)cnc32)ncc1-c1cc(C2CCCOC2)no1` (stereo not shown) [Example 416, 1-(4-(isopropylamino)-5-(3-(tetrahydro-2H-pyran-3-yl)isoxazol-5-yl)pyridin-2-yl)-1H-pyrazolo[3,4-b]pyridine-5-carbonitrile], the half-inhibitory concentration (IC50) at IRAK4 came out at 2 nM. Moreover, a half-maximal response in assay [1] (Homo sapiens) (EC50) required 480 nM.
The like results for `CC(C)Nc1cc(-n2ncc3cc(C#N)cnc32)ncc1-c1cn(C2CN(C#N)C2)nn1` [Example 141, 1-(5-(1-(1-cyanoazetidin-3-yl)-1H-1,2,3-triazol-4-yl)-4-(isopropylamino)pyridin-2-yl)-1H-pyrazolo[3,4-b]pyridine-5-carbonitrile] were, in that order, 8 nM and 960 nM.
For `CC(F)Cc1cn(-c2cnc(-n3cnc4cc(C#N)cnc43)cc2NC(C)C)nn1` (single isomer, unassigned) [Example 291, 3-(5-(4-(2-fluoropropyl)-1H-1,2,3-triazol-1-yl)-4-(isopropylamino)pyridin-2-yl)-3H-imidazo[4,5-b]pyridine-6-carbonitrile] the same measures were 14 nM and 850 nM.
In the case of `CC(C)Nc1cc(-n2ncc3cc(C#N)cnc32)ncc1-c1cn([C@@H]2CCC[C@H]2O)nn1` (single isomer, unassigned) [Example 82], the half-inhibitory concentration (IC50) at IRAK4 worked out at 5 nM. The molecule also came in with an EC50 in assay [1] of 1660 nM.
In the case of `CC(C)Nc1cc(-n2ncc3cc(C#N)cnc32)ncc1-c1cn(C2CN(C)C2)nn1` [Example 151, 1-(4-(isopropylamino)-5-(1-(1-methylazetidin-3-yl)-1H-1,2,3-triazol-4-yl)pyridin-2-yl)-1H-pyrazolo[3,4-b]pyridine-5-carbonitrile, 2TFA], on IRAK4, the concentration for half-maximal inhibition (IC50) was determined as 2 nM. Moreover, the EC50 in assay [1] (Homo sapiens) is 1610 nM.
For `CC(C)Cn1cnc(-c2cnc(-n3ncc4cc(C#N)cnc43)cc2NC(C)C)c1` [Example 221, 1-(5-(1-isobutyl-1H-imidazol-4-yl)-4-(isopropylamino)pyridin-2-yl)-1H-pyrazolo[3,4-b]pyridine-5-carbonitrile] the same measures were 12 nM and 2210 nM.
For `CC(=O)N1CC(Cn2cnc(-c3cnc(-n4ncc5cc(C#N)cnc54)cc3NC(C)C)c2)C1` [Example 234, 1-(5-(1-((1-acetylazetidin-3-yl)methyl)-1H-imidazol-4-yl)-4-(isopropylamino)pyridin-2-yl)-1H-pyrazolo[3,4-b]pyridine-5-carbonitrile] the same measures were 16 nM and 440 nM.
The like results for `CC(C)Nc1cc(-n2ncc3cc(C#N)cnc32)ncc1-c1cn(CC2CC2)cn1` [Example 229, 1-(5-(1-(cyclopropylmethyl)-1H-imidazol-4-yl)-4-(isopropylamino)pyridin-2-yl)-1H-pyrazolo[3,4-b]pyridine-5-carbonitrile] were, in that order, 10 nM and 590 nM.
On to `CC(C)Nc1cc(-n2cnc3cc(C#N)cnc32)ncc1-c1cn(CCc2ccccc2)nn1` [Example 57, 3-(4-(isopropylamino)-5-(1-phenethyl-1H-1,2,3-triazol-4-yl)pyridin-2-yl)-3H-imidazo[4,5-b]pyridine-6-carbonitrile], for which the IC50 on IRAK4 stood at 3 nM. Further, in assay [1] (Homo sapiens), the response was half-maximal at 610 nM (EC50).
With `CC(C)Nc1cc(-n2ncc3cc(C#N)cnc32)ncc1-c1cn([C@@H]2CCC[C@H]2O)nn1` (single isomer, unassigned) [Example 80], on IRAK4, the IC50 stood at 3 nM. The molecule further registered a 50% effective concentration (EC50) in assay [1] of 590 nM.
Consider `CCN(CC)Cc1cn(-c2cnc(-n3ncc4cc(C#N)cnc43)cc2NC(C)C)nn1` [Example 324, 1-(5-(4-((diethylamino)methyl)-1H-1,2,3-triazol-1-yl)-4-(isopropylamino)pyridin-2-yl)-1H-pyrazolo[3,4-b]pyridine-5-carbonitrile], for which the IC50 at IRAK4 was found to be 18 nM. In assay [1] (Homo sapiens), this molecule registered an EC50 of 3410 nM.
As to `CCCc1cn(-c2cnc(-n3cnc4cc(C#N)cnc43)cc2N[C@@H](C)CO)nn1` [Example 285, (S)-3-(4-((1-hydroxypropan-2-yl)amino)-5-(4-propyl-1H-1,2,3-triazol-1-yl)pyridin-2-yl)-3H-imidazo[4,5-b]pyridine-6-carbonitrile], on IRAK4, the IC50 was determined as 17 nM. The molecule further gave an EC50 in assay [1] (Homo sapiens) of 6400 nM.
As for `CC(C)Nc1cc(-n2ncc3cc(C#N)cnc32)ncc1-n1cc(C2CCC(NC(C)C)CC2)nn1` (stereo not shown) [Example 343, 1-(4-(isopropylamino)-5-(4-((1 s,4s)-4-(isopropylamino)cyclohexyl)-1H-1,2,3-triazol-1-yl)pyridin-2-yl)-1H-pyrazolo[3,4-b]pyridine-5-carbonitrile], the IC50 at IRAK4 was determined as 3 nM. The molecule further gave an EC50 in assay [1] (Homo sapiens) of 520 nM.
The like results for `CCS(=O)(=O)N1CCC(c2cn(-c3cnc(-n4ncc5cc(C#N)cnc54)cc3NC(C)C)nn2)CC1` [Example 346, 1-(5-(4-(1-(ethylsulfonyl)piperidin-4-yl)-1H-1,2,3-triazol-1-yl)-4-(isopropylamino)pyridin-2-yl)-1H-pyrazolo[3,4-b]pyridine-5-carbonitrile] were, in that order, 6 nM and 460 nM.
For the molecule `CC(F)Cc1cn(-c2cnc(-n3ncc4cc(C#N)cnc43)cc2NC2CC2)nn1` (stereo not shown) [Example 353, 1-(4-(cyclopropylamino)-5-(4-(2-fluoropropyl)-1H-1,2,3-triazol-1-yl)pyridin-2-yl)-1H-pyrazolo[3,4-b]pyridine-5-carbonitrile], the IC50 at IRAK4 stood at 11 nM. This molecule had an EC50 in assay [1] of 430 nM.
`CC(C)Nc1cc(-n2ncc3cc(C#N)cnc32)ncc1-c1cn(C2CN(C(=O)C(C)(C)C)C2)nn1` [Example 146, 1-(4-(isopropylamino)-5-(1-(1-pivaloylazetidin-3-yl)-1H-1,2,3-triazol-4-yl)pyridin-2-yl)-1H-pyrazolo[3,4-b]pyridine-5-carbonitrile]: the IC50 at IRAK4 turned out to be 3 nM. In assay [1] (Homo sapiens), it took 1090 nM to reach a half-maximal effect (EC50).
For `CC(C)Nc1cc(-n2ncc3cc(C#N)cnc32)ncc1-c1cn(CCN(C)C)nn1` [Example 126, 1-(5-(1-(2-(dimethylamino)ethyl)-1H-1,2,3-triazol-4-yl)-4-(isopropylamino)pyridin-2-yl)-1H-pyrazolo[3,4-b]pyridine-5-carbonitrile] the same measures were 4 nM and 390 nM.
